According to patent publication US9844226B2 (AJINOMOTO CO., INC., priority 2009, dated 2017):
Entries after “also recorded” stand apart in the source; their conditions may differ.

Tests used:
panelists [1] = assay: Quantitative sensory evaluation test of kokumi-imparting activity; type: in vivo, human
Description: This quantitative sensory evaluation test was carried out as follows: The strength of the kokumi-imparting activity was measured for the cases where the test compound was mixed at concentrations of 0.001 to 0.5 g/dL with distilled water containing sodium glutamate (0.05 g/dL), inosine monophosphate (0.05 g/dL), and sodium chloride (0.5 g/dL). After the test compound was dissolved, samples more acidic than a control with no added test compound were adjusted, before further use, with NaOH to have a pH in a range of ±0.2 from the pH of the control with no added test compound. The sensory evaluation scores were as follows: control: 0 points; strong: 3 points; very strong: 5 points. The sensory evaluation was carried out using n (the number of panelists)=4. Moreover, to clarify the scale, the initial taste and the middle/after taste of γ-[…] at 0.001 g/dL were both set as 3.0 points. The term “middle/after taste” refers to the taste perceived during the period which includes the middle taste and the after taste. For the scoring, a linear scale method was employed. In this method, the score was marked as a position on a straight line showing positions for scores ranging from -5 0 5.

panelists [2] = assay: Strength of kokumi-imparting activity by Point of Subjective Equality (PSE), limit-determining technique; type: in vivo, human; conditions: from PSE
Description: The intensity of the kokumi-imparting activity of γ-Glu-Abu was determined by Point of Subjective Equality (PSE) according to the limit-determining technique (“Statistical Sensory Examination techniques”, written by SATO Shin, published by Japan Federation of Science and Technology). The sensory evaluation was carried out as follows: Distilled water containing sodium glutamate (0.05 g/dL), inosine monophosphate (0.05 g/dL) and sodium chloride (0.5 g/dL) was used as the solution for the sensory evaluation. […] To determine the concentration of γ-Glu-Val at which the strength of taste is the same as that of a solution obtained by causing the solution for the sensory evaluation to contain 0.005 g/dL of γ-[…] solutions were prepared with a concentration that varied on a 50% logarithmic scale by using a solution obtained by causing the solution for the sensory evaluation, to contain 0.01 g/dL of γ-Glu-Val as a standard. The concentrations of γ-Glu-Val was set to 7 values ranging from 0.0030 to 0.0337 g/dL. After the test substance was dissolved, samples more acidic than the control with no added test substance were adjusted, before further use, with NaOH to have a pH in a range of ±0.2 as compared to the pH of the control with no added test substance. The solutions were presented to eighteen panelists in ascending order of the γ-Glu-Val concentration. The evaluation was carried out until each panelist perceived that the strength was higher than that of the 0.005 g/dL γ-Glu-Abu solution. After a certain interval, the solutions were next presented to the eighteen panelists in descending order of the γ-Glu-Val concentration. The evaluation was carried out until each panelist perceived that the strength was lower than that of the 0.005 g/dL γ-Glu-Abu solution. In this sensory evaluation, the panelists were experienced in the development of food products. When the lower and upper threshold values were the same, there was no γ-Glu-Val concentration at which the difference between the perception that the strength was lower, and the perception that the strength was higher, was uncertain. […] Each confidence threshold (average) is an average of the lower thresholds and the upper thresholds. The point of subjective equality (PSE) of γ-Glu-Val to 50 ppm (0.0050 g/dL) of γ-Glu-Abu is expressed as follows: (the sum of the confidence threshold of the lower thresholds and that of the upper threshold value)/2.

panelists [3] = assay: Quantitative sensory evaluation test of salty taste enhancement; type: in vivo, human
Description: After the test compound was dissolved, samples more acidic than a control containing no added test compound were adjusted, before further use, with NaOH to have a pH in a range of ±0.2 from the pH of the control to which no test compound was added.
The sensory evaluation scores were as follows, the control to which no test compound was added, i.e. a 0.5 g/dL sodium chloride solution: 0 points; a 0.75 g/dL sodium chloride solution: 5 points. The sensory evaluation was conducted on a scale ranging from −5 to 0 to 5, with n=5. The “initial taste” refers to the taste perceived by each panelist from the start of eating the sample to 2 seconds thereafter, while the term “middle/after taste” refers to that perceived by each panelist from 2 seconds on and after eating the same, i.e. perceived during the period including both the middle taste and the after taste. For the scoring, a linear scale method was used. In this method, the score was marked as a position on a straight line showing positions for scores ranging from −5˜0˜5. The panelists were persons who were engaged in the development of seasonings for foods for one year or longer in total, and who were capable of determining that the difference in the potency between γ-Glu-Cys-Gly and γ-Glu-Val-Gly each added to a umami taste and salty taste solution was around 10 times, while confirming the ability of these persons at regular intervals.

[4] = Stability (statement only); type: physicochemical; conditions: compared with γ-Glu-Cys
[5] = 0.005 g/dL in water with MSG 0.05, IMP 0.05, NaCl 0.5 g/dL, scale -5~0~5, n=4
[6] = 0.004 g/dL in 0.5 g/dL NaCl, 0.5 g/dL NaCl = 0, 0.75 g/dL NaCl = 5, n=5

CC[C@H](NC(=O)CC[C@H](N)C(=O)O)C(=O)O
Strength of Kokumi Impartment, Initial Taste (panelists [1]; [5]): 3.8 points | Strength of Kokumi Impartment, Middle/After Taste (panelists [1]; [5]): 3.2 points | Kokumi-imparting potency (in words) (panelists [1]; in vivo): extremely high potency; also recorded: excellent kokumi-imparting activity | Strength of γ-Glu-Abu relative to γ-Glu-Val (panelists [2]): approximately 2.4 times | Sensory Evaluation Profile (salty taste) (panelists [3]; 0.004 g/dL in 0.5 g/dL NaCl): The salty taste was enhanced | Strength of Salty Taste Impartment, Initial Taste (panelists [3]; [6]): 1.6 points | Strength of Salty Taste Impartment, Middle/After Taste (panelists [3]; [6]): 1.5 points | Salty taste enhancement ability (in words) (panelists [3]; comparison of γ-Glu-Val-Gly and γ-Glu-Abu): extremely well balanced salty taste enhancement | Stability (in words) [4]: excellent in stability
